Data: PMC9558223, “Staphylococcus aureus is able to generate resistance to novel lipoglycopeptide antibiotic gausemycin A” (Frontiers in Microbiology, 2022)
≈ marks a conversion by molar mass, not a printed value. Like-named read-outs stand apart in the source and are kept apart here.

Columns and labels:
[1] = tested on: S. aureus 5812R; experiment: microbe, parasite or virus in culture; assay type: cell-based, Staphylococcus aureus; conditions: for MIC: 24 h; for Change of MIC / resistance of S. aureus 5812R compared to parent strain S. aureus FDA209P: ratio of MIC for 5812R and FDA209P; for Cross-resistance of S. aureus 5812R: susceptibility testing of gausemycin A-resistant strain
Procedure: (§1) Minimal inhibitory concentration (MIC) was determined as previously described in Fuchs et al. ([2000]), following the Clinical and Laboratory Standards Institute (CLSI) guidelines for broth microdilution MIC assay. The bacteria were incubated in a 96-well microtiter plate (Eppendorf, Germany) containing 90 μL of inoculum prepared in growth media at 10^6 CFU/ml with 10 μL of twofold dilutions of the antibiotics. The results were evaluated after 24 h of cultivation at 37 °C. The bacterial growth was assessed by scanning the absorbance data at 600 nm obtained by spectrophotometer (Multiscan GO, Thermo Fisher Scientific, US).

[2] = tested on: S. aureus FDA209P; experiment: microbe, parasite or virus in culture; assay type: cell-based, Staphylococcus aureus; conditions: broth microdilution (CLSI), 10^6 CFU/ml, 24 h, 37 °C, absorbance at 600 nm
Procedure: as §1

[3] = tested on: S. aureus 5812R; experiment: microbe, parasite or virus in culture; assay type: cell-based, Staphylococcus aureus; conditions: 24 h; for MIC: Staphylococcus aureus, 5812R, read-out: MIC alone
Procedure: The effect of gausemycin A in combination with other antibiotics was evaluated using the checkerboard technique with modifications (Nwabor et al., [2021]). Briefly, 80 μL of diluted bacterial suspension (10^6 CFU/mL) was added to wells containing 10 μL of sub-inhibitory concentrations of gausemycin A and 10 μL of sub-inhibitory concentrations of conventional antibiotics. The plates were incubated for 24 h at 37°C. The effects of the antimicrobial combination were defined according to the fractional inhibitory concentration index (FICI). The ΣFICs were calculated as follows:
where FIC A is the MIC of drug A in the combination/MIC of drug A alone; and FIC B is the MIC of drug B in the combination/MIC of drug B alone. The result was interpreted as FIC ≤ 0.5 = Synergism, FIC > 0.5 to 1 = additivity, FIC >1 to 2 = indifference, and FIC >2 antagonism.

[4] = tested on: S. aureus FDA209P; experiment: Serial passaging in increasing concentrations of antimicrobials; assay type: cell-based, Staphylococcus aureus; conditions: for The highest concentration of antibiotic allowing growth: Mueller-Hinton II broth (CaCl2 50 mg/L), 37 °C, 24 h
Procedure: Gausemycin A-resistant variant was obtained by serial passaging as described previously (Pollard et al., [2012]). Isolated colonies of S. aureus FDA209P were inoculated into Mueller-Hinton II broth (CaCl2 50 mg/L) containing twofold dilutions of gausemycin A. The cultures were incubated at 37 °C with aeration for 24 h. After incubation, bacterial cells growing at the highest concentration of gausemycin A (below the MIC) were harvested and used for the next passage. The process was repeated for 20 passages. The dynamic of the developing resistance to gausemycin A was evaluated in comparison with daptomycin and ramoplanin. The experiments were performed in two independent series on separate days with three technical replicates each.

[5] = tested on: biofilm-embedded staphylococcal cells; conditions: ref Vasilchenko et al., 2020; cited from earlier work
Excerpt: These lipoglycopeptides were firstly described in 2016 (Lapchinskaya et al., [2016]), and consequently named gausemycins A and B (Tyurin et al., [2021]). Gausemycin A is a macrocyclic peptide containing 14 amino acids, where tyrosine is glycosylated with arabinose, which makes gausemycin A unique among natural peptide antibiotics (Tyurin et al., [2021]). The closest structurally related compounds are depsipeptides (daptomycin, taromycins, and cadazides) and cyclopeptides ( ...

[6] = Staphylococcus aureus, read-out: MIC
[7] = S. aureus 5812R, broth microdilution (CLSI), 10^6 CFU/ml, 37 °C, absorbance at 600 nm

Row | Compound | MIC ([1]; Staphylococcus aureus, 5812R) [µg/mL] | MIC [2, 6] [µg/mL] | MIC [3] [µg/mL] | The highest concentration of antibiotic allowing growth ([4]; passage 1) [µg/mL] | The highest concentration of antibiotic allowing growth ([4]; passage 2) [µg/mL] | The highest concentration of antibiotic allowing growth ([4]; passage 3) [µg/mL] | The highest concentration of antibiotic allowing growth ([4]; passage 4) [µg/mL] | The highest concentration of antibiotic allowing growth ([4]; passage 5) [µg/mL] | The highest concentration of antibiotic allowing growth ([4]; passage 6) [µg/mL] | The highest concentration of antibiotic allowing growth ([4]; passage 7) [µg/mL] | The highest concentration of antibiotic allowing growth ([4]; passage 8) [µg/mL] | The highest concentration of antibiotic allowing growth ([4]; passage 9) [µg/mL] | The highest concentration of antibiotic allowing growth ([4]; passage 10) [µg/mL] | The highest concentration of antibiotic allowing growth ([4]; passage 11) [µg/mL] | The highest concentration of antibiotic allowing growth ([4]; passage 12) [µg/mL] | The highest concentration of antibiotic allowing growth ([4]; passage 13) [µg/mL] | The highest concentration of antibiotic allowing growth ([4]; passage 14) [µg/mL] | The highest concentration of antibiotic allowing growth ([4]; passage 15) [µg/mL] | Change of MIC / resistance of S. aureus 5812R compared to parent strain S. aureus FDA209P [1] | Cross-resistance of S. aureus 5812R [1] | other results
1 | CC1(C)S[C@@H]2[C@H](NC(=O)[C@H](N)c3ccccc3)C(=O)N2[C@H]1C(=O)O [Ampicillin] | 1.25 (≈ 3.58 µM) | 0.16 (≈ 0.458 µM) | 1.25 | – | – | – | – | – | – | – | – | – | – | – | – | – | – | – | – | – | MIC of Amp in combination ([3]; S. aureus 5812R, combination Amp + GauA, checkerboard, 37 °C): 0.63 µg/mL
2 | O=C(O)c1cn(C2CC2)c2cc(N3CCNCC3)c(F)cc2c1=O [Ciprofloxacin] | – | – | – | – | – | – | – | – | – | – | – | – | – | – | – | – | – | – | – | – | MIC of Cip in combination ([3]; S. aureus 5812R, combination Cip+ GauA, checkerboard, 37 °C): 0.18 µg/mL
3 | CCCCCCCCCC(=O)N[C@@H](Cc1c[nH]c2ccccc12)C(=O)N[C@H](CC(N)=O)C(=O)N[C@@H](CC(=O)O)C(=O)N[C@@H]1C(=O)NCC(=O)N[C@@H](CCCN)C(=O)N[C@@H](CC(=O)O)C(=O)N[C@H](C)C(=O)N[C@@H](CC(=O)O)C(=O)NCC(=O)N[C@H](CO)C(=O)N[C@@H]([C@H](C)CC(=O)O)C(=O)N[C@@H](CC(=O)c2ccccc2N)C(=O)O[C@@H]1C [Daptomycin] | – | – | – | 1.25 | 1.25 | 1.25 | 1.25 | 1.25 | 1.25 | 1.25 | 1.25 | 1.25 | 1.25 | 1.25 | 2.50 | 2.50 | 2.50 | 2.50 | 4 fold | cross-resistance | The highest concentration of antibiotic allowing growth ([4]; passage 16): 2.50 µg/mL; The highest concentration of antibiotic allowing growth ([4]; passage 17): 2.50 µg/mL; The highest concentration of antibiotic allowing growth ([4]; passage 18): 2.50 µg/mL; The highest concentration of antibiotic allowing growth ([4]; passage 19): 2.50 µg/mL; The highest concentration of antibiotic allowing growth ([4]; passage 20): 5.0 µg/mL; Inhibition of biofilm-embedded staphylococcal cells [5]: inactive; MIC [1, 7]: 5.0 µg/mL (≈ 3.09 µM); MIC [2]: 1.25 µg/mL (≈ 0.771 µM); MIC alone ([3]; S. aureus 5812R, single antibiotic, 10^6 CFU/mL, 37 °C): 5.0 µg/mL
4 | CNC(C)C1CCC(N)C(OC2C(N)CC(N)C(OC3OCC(C)(O)C(NC)C3O)C2O)O1 (centres unmarked) [Gentamicin] | 1.56 (≈ 3.27 µM) | 0.2 (≈ 0.419 µM) | 1.56 | – | – | – | – | – | – | – | – | – | – | – | – | – | – | – | 7.8 fold | cross-resistance | MIC of Gen in combination ([3]; S. aureus 5812R, combination Gen+ GauA, checkerboard, 37 °C): 0.75 µg/mL
5 | Ramoplanin | – | – | – | 3.12 | 6.25 | 6.25 | 12.5 | 50 | 50 | 50 | 100 | 100 | 100 | >100 | >100 | >100 | >100 | >100 | did not differ | absent | The highest concentration of antibiotic allowing growth ([4]; passage 16): >100 µg/mL; The highest concentration of antibiotic allowing growth ([4]; passage 17): >100 µg/mL; The highest concentration of antibiotic allowing growth ([4]; passage 18): >100 µg/mL; The highest concentration of antibiotic allowing growth ([4]; passage 19): >100 µg/mL; The highest concentration of antibiotic allowing growth ([4]; passage 20): >100 µg/mL; Number of passages within which resistance was formed ([4]; serial passages with sub-inhibitory concentrations): ≤ 10 passages; MIC [1, 7]: 3.12 µg/mL; MIC [2]: 3.12 µg/mL
